Data on one molecule can be found in article PMC8001506 (Marine Drugs, 2021).

pIC50: −log10 of the molar value. “Also recorded” adds a separate entry of the source. Where a SMILES comes first, the peptide text is derived from it. Bridges are numbered along the chain shown (N, C = ends). A value given as a limit tells only on which side of the number the result lay.

One assay addresses rat α2β4 nAChR (Rattus norvegicus, UniProt P12389+P12392). The experiment in a line: cell-based. The assay is classed as cell-based.
The target in a further assay is rat α3β4 nAChR (Rattus norvegicus, UniProt P04757+P12392). Description: cell-based. It is filed as cell-based.
Chain of rat α3β4 nAChR (P04757 26-499 limits assumed): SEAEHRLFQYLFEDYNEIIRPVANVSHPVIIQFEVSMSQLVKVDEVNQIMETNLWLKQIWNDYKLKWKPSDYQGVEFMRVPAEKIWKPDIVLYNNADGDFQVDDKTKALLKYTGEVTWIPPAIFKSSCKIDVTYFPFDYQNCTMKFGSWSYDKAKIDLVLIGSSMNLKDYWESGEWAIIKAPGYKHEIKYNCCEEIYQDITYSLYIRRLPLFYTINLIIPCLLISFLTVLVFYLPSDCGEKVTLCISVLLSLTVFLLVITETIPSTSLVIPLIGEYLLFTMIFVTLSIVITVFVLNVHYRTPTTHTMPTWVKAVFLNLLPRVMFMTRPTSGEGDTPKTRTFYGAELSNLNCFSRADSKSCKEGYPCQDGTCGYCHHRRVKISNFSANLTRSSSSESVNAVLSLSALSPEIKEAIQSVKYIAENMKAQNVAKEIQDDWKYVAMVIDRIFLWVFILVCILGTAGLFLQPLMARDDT
Chain of rat α3β4 nAChR (P12392 21-495 limits assumed): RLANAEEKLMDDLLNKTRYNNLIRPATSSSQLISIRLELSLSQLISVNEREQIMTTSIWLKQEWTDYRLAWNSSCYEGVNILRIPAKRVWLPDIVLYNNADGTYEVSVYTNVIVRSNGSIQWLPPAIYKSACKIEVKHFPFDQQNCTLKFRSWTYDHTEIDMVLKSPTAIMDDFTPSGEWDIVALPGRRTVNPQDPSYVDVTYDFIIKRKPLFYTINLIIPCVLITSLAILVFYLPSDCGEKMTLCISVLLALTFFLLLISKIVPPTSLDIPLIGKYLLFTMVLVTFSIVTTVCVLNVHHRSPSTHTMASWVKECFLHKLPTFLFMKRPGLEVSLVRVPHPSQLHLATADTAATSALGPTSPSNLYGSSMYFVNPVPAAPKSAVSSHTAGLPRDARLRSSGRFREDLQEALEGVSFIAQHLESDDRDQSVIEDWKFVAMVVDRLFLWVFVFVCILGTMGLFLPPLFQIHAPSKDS
The next assay addresses rat α6/α3β2β3 nAChR (Rattus norvegicus, UniProt P04757+P12390+P12391+P43143). The experiment in a line: cell-based.
Assay [1] relates to common mammalian nAChR combinations. It is filed as cell-based.
In the next assay the target is rat α4β4 nAChR (Rattus norvegicus, UniProt P09483+P12392). The experiment in a line: cell-based. The assay is classed as cell-based.
Chain of rat α4β4 nAChR (P09483 31-630 limits assumed): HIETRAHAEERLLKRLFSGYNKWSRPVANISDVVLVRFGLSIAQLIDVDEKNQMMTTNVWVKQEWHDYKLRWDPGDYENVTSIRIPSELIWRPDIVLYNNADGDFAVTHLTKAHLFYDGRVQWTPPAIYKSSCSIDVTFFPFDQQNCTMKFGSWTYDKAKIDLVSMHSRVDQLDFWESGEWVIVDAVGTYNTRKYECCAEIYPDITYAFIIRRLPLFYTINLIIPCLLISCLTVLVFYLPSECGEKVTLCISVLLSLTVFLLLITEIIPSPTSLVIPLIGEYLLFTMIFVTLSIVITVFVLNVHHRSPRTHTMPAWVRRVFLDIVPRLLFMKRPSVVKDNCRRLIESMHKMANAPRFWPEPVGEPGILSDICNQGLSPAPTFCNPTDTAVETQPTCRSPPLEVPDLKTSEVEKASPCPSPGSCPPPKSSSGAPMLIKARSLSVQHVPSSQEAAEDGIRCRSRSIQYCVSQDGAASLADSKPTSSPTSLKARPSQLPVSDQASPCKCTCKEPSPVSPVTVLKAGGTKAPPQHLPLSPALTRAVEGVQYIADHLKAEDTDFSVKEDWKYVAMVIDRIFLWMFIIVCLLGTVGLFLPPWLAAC
Chain of rat α4β4 nAChR (P12392 21-495 limits assumed): as the sequence (P12392 21-495 limits assumed) above
A further assay deals with rat α2β2 nAChR (Rattus norvegicus, UniProt P12389+P12390). Description: cell-based. The assay is classed as cell-based.
Chain of rat α2β2 nAChR (P12389 28-511 limits assumed): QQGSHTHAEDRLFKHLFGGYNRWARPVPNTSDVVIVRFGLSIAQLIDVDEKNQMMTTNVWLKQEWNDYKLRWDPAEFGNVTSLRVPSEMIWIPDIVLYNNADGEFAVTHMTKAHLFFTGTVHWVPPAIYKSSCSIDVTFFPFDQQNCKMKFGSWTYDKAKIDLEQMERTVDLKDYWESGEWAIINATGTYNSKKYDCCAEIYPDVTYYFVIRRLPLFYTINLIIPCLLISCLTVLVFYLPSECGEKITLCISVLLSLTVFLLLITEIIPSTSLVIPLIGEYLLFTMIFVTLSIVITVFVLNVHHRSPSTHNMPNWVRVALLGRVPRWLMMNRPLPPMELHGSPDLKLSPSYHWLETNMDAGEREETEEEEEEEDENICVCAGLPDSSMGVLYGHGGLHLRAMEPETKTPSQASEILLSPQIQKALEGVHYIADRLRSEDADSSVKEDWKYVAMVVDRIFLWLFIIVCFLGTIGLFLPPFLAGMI
Chain of rat α2β2 nAChR (P12390 25-500 limits assumed): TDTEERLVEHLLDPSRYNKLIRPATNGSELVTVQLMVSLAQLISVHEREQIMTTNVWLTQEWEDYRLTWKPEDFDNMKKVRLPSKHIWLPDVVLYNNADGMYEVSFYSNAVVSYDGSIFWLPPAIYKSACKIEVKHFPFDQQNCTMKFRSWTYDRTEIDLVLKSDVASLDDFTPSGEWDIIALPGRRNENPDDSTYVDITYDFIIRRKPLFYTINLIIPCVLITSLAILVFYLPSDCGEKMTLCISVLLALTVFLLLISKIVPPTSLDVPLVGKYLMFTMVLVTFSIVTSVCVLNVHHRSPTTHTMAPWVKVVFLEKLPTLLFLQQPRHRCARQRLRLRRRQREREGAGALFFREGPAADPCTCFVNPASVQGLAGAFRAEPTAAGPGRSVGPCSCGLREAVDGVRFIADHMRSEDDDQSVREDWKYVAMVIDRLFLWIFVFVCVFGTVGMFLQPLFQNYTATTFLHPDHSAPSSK
In another assay the target is rat α4β2 nAChR (Rattus norvegicus, UniProt P09483+P12390). Description: cell-based. The assay is classed as cell-based.
Chain of rat α4β2 nAChR (P09483 31-630 limits assumed): as the sequence (P09483 31-630 limits assumed) above
Chain of rat α4β2 nAChR (P12390 25-500 limits assumed): as the sequence (P12390 25-500 limits assumed) above
Another assay deals with rat α7 nAChR (Rattus norvegicus, UniProt Q05941). Description: cell-based. It is filed as cell-based.
Chain of rat α7 nAChR (Q05941 23-502 limits assumed): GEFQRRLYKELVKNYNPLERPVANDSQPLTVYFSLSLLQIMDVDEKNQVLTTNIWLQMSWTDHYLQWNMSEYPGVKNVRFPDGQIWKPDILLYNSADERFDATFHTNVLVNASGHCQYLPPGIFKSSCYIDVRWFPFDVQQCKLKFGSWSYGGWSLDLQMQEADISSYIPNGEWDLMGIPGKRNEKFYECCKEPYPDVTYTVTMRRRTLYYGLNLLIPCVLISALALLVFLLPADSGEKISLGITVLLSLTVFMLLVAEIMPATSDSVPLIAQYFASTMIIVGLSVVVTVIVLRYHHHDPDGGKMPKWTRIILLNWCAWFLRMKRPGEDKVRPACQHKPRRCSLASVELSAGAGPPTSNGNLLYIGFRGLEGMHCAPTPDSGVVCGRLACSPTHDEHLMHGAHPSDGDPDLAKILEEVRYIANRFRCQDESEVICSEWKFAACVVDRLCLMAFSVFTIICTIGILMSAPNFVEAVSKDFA
Another assay concerns the target human α9α10 nAChR (Homo sapiens, UniProt Q9GZZ6+Q9UGM1). The experiment in a line: cell-based. It is filed as cell-based.
For the next assay, the target named is rat α3β2 nAChR (Rattus norvegicus, UniProt P04757+P12390). Description: cell-based.
Chain of rat α3β2 nAChR (P04757 26-499 limits assumed): as the sequence (P04757 26-499 limits assumed) above
Chain of rat α3β2 nAChR (P12390 25-500 limits assumed): as the sequence (P12390 25-500 limits assumed) above

Chain of rat α2β4 nAChR (P12389 28-511 limits assumed): as the sequence (P12389 28-511 limits assumed) above
Chain of rat α2β4 nAChR (P12392 21-495 limits assumed): as the sequence (P12392 21-495 limits assumed) above
Chain of human α9α10 nAChR (Q9UGM1 26-479 limits assumed): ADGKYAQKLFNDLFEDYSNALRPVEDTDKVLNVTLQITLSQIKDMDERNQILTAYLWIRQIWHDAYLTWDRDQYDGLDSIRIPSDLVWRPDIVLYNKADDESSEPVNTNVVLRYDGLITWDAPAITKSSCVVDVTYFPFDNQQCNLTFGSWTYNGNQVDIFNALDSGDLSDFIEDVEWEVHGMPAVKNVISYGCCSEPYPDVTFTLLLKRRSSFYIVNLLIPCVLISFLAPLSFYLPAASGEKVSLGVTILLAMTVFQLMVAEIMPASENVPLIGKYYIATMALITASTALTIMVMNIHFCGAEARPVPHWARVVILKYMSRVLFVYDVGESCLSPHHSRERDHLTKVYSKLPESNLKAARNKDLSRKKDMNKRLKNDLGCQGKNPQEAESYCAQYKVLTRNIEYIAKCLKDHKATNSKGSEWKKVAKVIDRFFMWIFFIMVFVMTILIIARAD
Chain of human α9α10 nAChR (Q9GZZ6 25-450 limits assumed): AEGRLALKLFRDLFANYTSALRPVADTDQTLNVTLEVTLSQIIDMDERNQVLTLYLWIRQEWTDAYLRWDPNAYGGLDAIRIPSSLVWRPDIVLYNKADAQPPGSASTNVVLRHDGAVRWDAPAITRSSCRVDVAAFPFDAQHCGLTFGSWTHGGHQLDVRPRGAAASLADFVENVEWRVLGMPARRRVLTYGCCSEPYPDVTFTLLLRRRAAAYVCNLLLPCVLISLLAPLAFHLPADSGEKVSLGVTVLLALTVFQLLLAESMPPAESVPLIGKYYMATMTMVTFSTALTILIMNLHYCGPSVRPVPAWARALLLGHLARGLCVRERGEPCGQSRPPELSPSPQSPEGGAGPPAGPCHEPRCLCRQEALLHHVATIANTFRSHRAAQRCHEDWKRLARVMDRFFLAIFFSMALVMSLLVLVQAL

Regarding `CC(C)C[C@@H]1NC(=O)[C@H](CC(=O)O)NC(=O)[C@H](CO)NC(=O)[C@H](Cc2c[nH]cn2)NC(=O)[C@H](CCC(N)=O)NC(=O)[C@H](C(C)C)NC(=O)[C@H](CCC(N)=O)NC(=O)[C@@H]2CSSC[C@H](N)C(=O)N[C@@H](CSSC[C@@H](C(=O)O)NC1=O)C(=O)N[C@@H](CO)C(=O)N[C@@H](CC(N)=O)C(=O)N1CCC[C@H]1C(=O)N[C@@H](C)C(=O)N2` [Δ-CIC] (H-CCSNPACQVQHSDLC-OH; disulfide 1-7, 2-15), the negative logarithm of the IC50 (pIC50) (as a rule, the IC50 on a negative log10 scale, so that one unit is a factor of ten) against rat α2β4 nAChR was under 5.00; on rat α3β4 nAChR, under 5.00; on rat α6/α3β2β3 nAChR, 5.97; at rat α4β4 nAChR it was under 5.00; on rat α2β2 nAChR it was under 5.00; against rat α4β2 nAChR, under 5.00. The values for the pIC50 against rat α7 nAChR, against human α9α10 nAChR and on rat α3β2 nAChR were under 5.00, under 5.00 and 5.34, respectively. Moreover, the “inhibition (in words)” value at rat α2β4 nAChR, against rat α3β4 nAChR, against rat α4β4 nAChR, on rat α2β2 nAChR, on rat α4β2 nAChR and on rat α7 nAChR was “no inhibition was detected; also recorded: No effects were observed” in each case. Besides, on human α9α10 nAChR, the “inhibition (in words)” value is “no inhibition was detected; also recorded: No effects were observed”. In addition, the “dissociation behavior, CIC versus Δ-CIC” value in assay [1] is “no difference in dissociation behavior”.
